The nature of data set [1]: Cytotoxicity against mouse B16 cells assessed as cell viability at 25 uM after 24 hrs by MTT assay. In kind it is cell-based. To be noted: read-out: Activity.
Data set [2] can be described thus: Cytotoxicity against mouse B16 cells assessed as cell viability at 50 uM after 24 hrs by MTT assay. In kind it is cell-based. To be noted: read-out: Activity.
The nature of data set [3]: Cytotoxicity against mouse B16 cells assessed as cell viability at 100 uM after 24 hrs by MTT assay. In kind it is cell-based. The note with it: read-out: Activity. On the technique in general: Formazan colour is commonly taken as a measure of viable cells.
Data set [4] has as its system B16. Kind of data set: Antimelanogenic activity in mouse B16 cells assessed as inhibition of melanin content at 25 uM relative to alpha-MSH. In kind it is functional.
In data set [5] the test system is B16. Kind of data set: Antimelanogenic activity in mouse B16 cells assessed as inhibition of melanin content at 100 uM relative to alpha-MSH. In kind it is functional.
The test system of data set [6] is B16. Kind of data set: Antimelanogenic activity in mouse B16 cells assessed as inhibition of melanin content at 400 uM relative to alpha-MSH. In kind it is functional.
Data set [7] concerns the target T1, Tyrosinase (Mus musculus) (UniProt P11344).
T1 sequence (whole entry): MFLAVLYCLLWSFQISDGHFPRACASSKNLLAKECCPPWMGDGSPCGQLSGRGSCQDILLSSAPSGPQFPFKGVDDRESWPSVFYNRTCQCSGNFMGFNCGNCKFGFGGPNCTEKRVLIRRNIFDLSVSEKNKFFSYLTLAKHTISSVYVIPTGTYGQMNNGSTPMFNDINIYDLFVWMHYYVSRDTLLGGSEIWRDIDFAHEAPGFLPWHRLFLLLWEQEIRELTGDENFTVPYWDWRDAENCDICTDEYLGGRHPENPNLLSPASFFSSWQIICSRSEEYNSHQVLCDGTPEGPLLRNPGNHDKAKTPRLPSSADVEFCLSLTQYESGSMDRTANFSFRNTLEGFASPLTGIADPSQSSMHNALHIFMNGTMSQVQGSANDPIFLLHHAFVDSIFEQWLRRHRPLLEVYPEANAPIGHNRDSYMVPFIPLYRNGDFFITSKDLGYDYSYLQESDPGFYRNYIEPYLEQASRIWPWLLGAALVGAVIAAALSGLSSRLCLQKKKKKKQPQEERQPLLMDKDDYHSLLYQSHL
Description: Inhibition of tyrosinase activity in mouse B16 cells at 25 uM. In kind it is cell-based.

Data set [8] has as its target T1, Tyrosinase (Mus musculus). Kind of data set: Inhibition of tyrosinase activity in mouse B16 cells at 100 uM. In kind it is cell-based.
Data set [9] addresses T1, Tyrosinase (Mus musculus). Kind of data set: Inhibition of tyrosinase activity in mouse B16 cells at 400 uM. In kind it is cell-based.
For data set [10], the target named is T2, Tyrosinase (Agaricus bisporus) (UniProt O42713).
T2 sequence (whole entry): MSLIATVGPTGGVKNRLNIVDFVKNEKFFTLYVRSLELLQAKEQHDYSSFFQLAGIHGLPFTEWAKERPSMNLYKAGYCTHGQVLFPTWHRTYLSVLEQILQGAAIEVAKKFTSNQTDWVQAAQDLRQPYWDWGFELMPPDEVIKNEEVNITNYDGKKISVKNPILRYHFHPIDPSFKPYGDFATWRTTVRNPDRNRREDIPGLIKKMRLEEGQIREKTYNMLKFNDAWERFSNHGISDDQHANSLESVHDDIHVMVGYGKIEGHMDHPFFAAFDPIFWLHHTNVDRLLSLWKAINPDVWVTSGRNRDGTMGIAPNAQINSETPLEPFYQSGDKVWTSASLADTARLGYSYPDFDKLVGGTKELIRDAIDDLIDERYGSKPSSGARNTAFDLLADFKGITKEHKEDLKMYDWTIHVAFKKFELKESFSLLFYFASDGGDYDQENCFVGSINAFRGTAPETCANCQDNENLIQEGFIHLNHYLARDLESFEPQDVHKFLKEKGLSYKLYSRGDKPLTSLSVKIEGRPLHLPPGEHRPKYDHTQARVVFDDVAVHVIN
The note with it: 0.5 uM.
Description: Inhibition of mushroom tyrosinase at 0.5 uM

Data set [11] has as its target T2, Tyrosinase (Agaricus bisporus). The note with it: 1 uM.
Description: Inhibition of mushroom tyrosinase at 1 uM
Data set [12] has the same target. The note with it: 2.5 uM.
Description: Inhibition of mushroom tyrosinase at 2.5 uM
For data set [13] the target is unchanged. To be noted: 5 uM.
Description: Inhibition of mushroom tyrosinase at 5 uM

This note sets out measurements from ChEMBL document CHEMBL1208759, “A newly synthesized, potent tyrosinase inhibitor: 5-(6-hydroxy-2-naphthyl)-1,2,3-benzenetriol” (Bioorg Med Chem Lett, 2010).

With `Oc1ccc2cc(-c3cc(O)c(O)c(O)c3)ccc2c1`, the viability at 24 h, 25 µM in [1] is 98.3%. Also, the viability at 24 h, 50 µM in data set [2] stood at 98.1%. The viability at 24 h, 100 µM in data set [3] is 95.1%. Further, the inhibition (in general, the relative decrease from the control value, in per cent) at 25 µM with B16 [4] is 50.7%. Further, the inhibition at 100 µM with B16 [5] was 45.8%. Also, the inhibition at 400 µM with B16 [6] turned out to be 34.7%. The inhibition amounted to 26.2% in data set [7]; 14.1% in data set [8]; 2.05% in data set [9]; 7.53% in [10]; 18.7% in [11]; 39.4% in data set [12]. The inhibition in [13] came to 86.1%.
